Each block holds one compound with its values, some of them ahead of it. The source made the active and inactive calls. No cut-off for these calls is given here.
Tests used:
[1] = Inhibition of HCV genotype 1b C-terminal polyhistidine-tagged NS5B Cdelta21 RdRp expressed in Escherichia coli using DCoH75 as template assessed as incorporation of [33P]-CTP in polynucleotide sequence after 2 hrs by scintillation counting analysis; parameters: species or system Hepatitis C virus subtype 1b
Hepatitis C virus = experiment: Antiviral activity against HCV infected in human hepatoma cells assessed as inhibition of viral RNA replication after 3 days by real time PCR analysis; format: functional, organism-based, Hepacivirus hominis; settings: 72 h
[2] = AUC (0 to 6 hrs) in rat at 10 mg/kg, po; format: ADME, organism-based; parameters: time < 6 hr, dose 10 mg/kg, route oral; settings: plasma
[3] = Cmax in rat; format: ADME, organism-based; settings: in vivo
[4] = Mutagenic activity in micronucleus (unknown origin); format: ADME
[5] = tested on: RNA-directed RNA polymerase (Hepacivirus hominis), O39930 [G554D]; experiment: Inhibition of HCV NS5B RdRp G554D mutant palm allosteric site
RNA-directed RNA polymerase (Hepacivirus hominis), O39930 [G554D], sequence (O39930 entry or part of it G554D): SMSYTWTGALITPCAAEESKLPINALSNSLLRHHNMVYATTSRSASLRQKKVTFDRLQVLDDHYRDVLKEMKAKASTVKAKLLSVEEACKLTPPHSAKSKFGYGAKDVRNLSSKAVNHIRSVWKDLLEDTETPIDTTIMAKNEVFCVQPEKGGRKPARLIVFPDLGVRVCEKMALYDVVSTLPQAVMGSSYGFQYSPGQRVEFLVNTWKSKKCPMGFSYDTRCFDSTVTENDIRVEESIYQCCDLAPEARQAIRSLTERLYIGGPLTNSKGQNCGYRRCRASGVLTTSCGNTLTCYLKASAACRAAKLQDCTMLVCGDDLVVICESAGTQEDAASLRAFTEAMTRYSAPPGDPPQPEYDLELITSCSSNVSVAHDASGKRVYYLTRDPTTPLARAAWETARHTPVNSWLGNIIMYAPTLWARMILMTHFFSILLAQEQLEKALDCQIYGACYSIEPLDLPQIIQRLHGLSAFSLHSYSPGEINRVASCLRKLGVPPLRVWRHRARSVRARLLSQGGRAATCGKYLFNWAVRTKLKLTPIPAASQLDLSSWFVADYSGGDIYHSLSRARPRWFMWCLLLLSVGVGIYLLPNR

[6] = tested on: RNA-directed RNA polymerase (Hepacivirus hominis), O39930 [C316Y]; experiment: Inhibition of HCV NS5B RdRp C316Y mutant palm allosteric site
RNA-directed RNA polymerase (Hepacivirus hominis), O39930 [C316Y], sequence (O39930 entry or part of it C316Y): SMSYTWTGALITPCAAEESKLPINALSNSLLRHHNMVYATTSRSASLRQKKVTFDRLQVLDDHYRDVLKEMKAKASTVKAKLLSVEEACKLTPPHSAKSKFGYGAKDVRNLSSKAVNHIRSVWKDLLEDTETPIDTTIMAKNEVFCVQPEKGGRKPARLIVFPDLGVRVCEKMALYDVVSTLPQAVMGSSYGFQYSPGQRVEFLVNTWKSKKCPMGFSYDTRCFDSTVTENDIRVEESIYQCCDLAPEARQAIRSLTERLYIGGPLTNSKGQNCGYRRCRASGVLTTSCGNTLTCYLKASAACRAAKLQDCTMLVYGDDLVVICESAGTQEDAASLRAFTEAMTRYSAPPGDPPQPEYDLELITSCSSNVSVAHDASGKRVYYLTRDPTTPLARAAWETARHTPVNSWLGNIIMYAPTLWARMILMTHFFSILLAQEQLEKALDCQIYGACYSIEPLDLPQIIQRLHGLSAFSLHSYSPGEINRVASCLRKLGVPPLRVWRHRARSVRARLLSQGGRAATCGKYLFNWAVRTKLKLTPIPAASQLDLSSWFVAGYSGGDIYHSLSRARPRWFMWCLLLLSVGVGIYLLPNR

[7] = Clearance in iv dosed dog; format: ADME, organism-based, Canis lupus familiaris; settings: in vivo
[8] = AUC (0 to 24 hrs) in dog at 3 mg/kg, po; format: ADME, organism-based, Canis lupus familiaris; parameters: time < 24 hr, dose 3 mg/kg, route oral; settings: plasma
[9] = Inhibition of HCV genotype 2a C-terminal polyhistidine-tagged NS5B Cdelta21 RdRp expressed in Escherichia coli using DCoH75 as template assessed as incorporation of [33P]-CTP in polynucleotide sequence after 2 hrs by scintillation counting analysis; parameters: species or system Hepatitis C virus subtype 2a
[10] = Cmax in monkey; format: ADME, organism-based, Macaca mulatta; settings: rhesus monkey, in vivo
[11] = tested on: RNA-directed RNA polymerase (Hepacivirus hominis), O39930 [M414T]; experiment: Inhibition of HCV NS5B RdRp M414T mutant active site
RNA-directed RNA polymerase (Hepacivirus hominis), O39930 [M414T], sequence (O39930 entry or part of it M414T): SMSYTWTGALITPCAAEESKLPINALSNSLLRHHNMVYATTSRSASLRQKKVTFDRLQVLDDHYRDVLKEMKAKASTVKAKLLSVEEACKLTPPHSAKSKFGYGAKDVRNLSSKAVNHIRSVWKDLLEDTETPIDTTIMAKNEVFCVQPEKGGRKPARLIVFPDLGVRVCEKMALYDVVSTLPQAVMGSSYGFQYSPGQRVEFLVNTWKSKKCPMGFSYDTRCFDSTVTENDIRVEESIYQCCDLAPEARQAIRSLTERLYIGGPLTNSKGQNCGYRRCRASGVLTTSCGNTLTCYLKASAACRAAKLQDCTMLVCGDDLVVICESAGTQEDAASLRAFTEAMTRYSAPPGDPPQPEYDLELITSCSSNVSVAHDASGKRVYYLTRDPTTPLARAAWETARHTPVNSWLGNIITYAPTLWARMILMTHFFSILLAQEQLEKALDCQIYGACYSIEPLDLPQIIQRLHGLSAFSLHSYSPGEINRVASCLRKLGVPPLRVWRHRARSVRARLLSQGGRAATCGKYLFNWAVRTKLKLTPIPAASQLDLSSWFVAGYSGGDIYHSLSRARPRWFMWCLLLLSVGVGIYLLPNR

[12] = Inhibition of HCV genotype 1a C-terminal polyhistidine-tagged NS5B Cdelta21 RdRp expressed in Escherichia coli using DCoH75 as template assessed as incorporation of [33P]-CTP in polynucleotide sequence after 2 hrs by scintillation counting analysis; parameters: species or system Hepatitis C virus subtype 1a
[13] = Half life in rat at 3 mg/kg, iv; format: ADME, organism-based; parameters: dose 3 mg/kg, route intravenous; settings: in vivo
[14] = Oral bioavailability in rat; format: ADME, organism-based; settings: in vivo
[15] = Oral bioavailability in monkey; format: ADME, organism-based, Macaca mulatta; settings: rhesus monkey, in vivo
[16] = tested on: RNA-directed RNA polymerase (Hepacivirus hominis), O39930 [C316Y]; experiment: Inhibition of HCV NS5B RdRp C316Y mutant active site
[17] = Half life in monkey at 1 mg/kg, iv; format: ADME, organism-based, Macaca mulatta; parameters: dose 1 mg/kg, route intravenous; settings: rhesus monkey, in vivo
[18] = tested on: RNA-directed RNA polymerase (Hepacivirus hominis), O39930 [G554D]; experiment: Inhibition of HCV NS5B RdRp G554D mutant active site
[19] = Oral bioavailability in dog; format: ADME, organism-based, Canis lupus familiaris; settings: in vivo
Salmonella typhimurium = experiment: Mutagenic activity in Salmonella typhimurium by mini Ames test; format: toxicity, organism-based; settings: salmonella enterica subsp. enterica serovar typhimurium
[20] = Cmax in dog; format: ADME, organism-based, Canis lupus familiaris; settings: in vivo
[21] = Inhibition of HCV genotype 4a C-terminal polyhistidine-tagged NS5B Cdelta21 RdRp expressed in Escherichia coli using DCoH75 as template assessed as incorporation of [33P]-CTP in polynucleotide sequence after 2 hrs by scintillation counting analysis; parameters: species or system Hepatitis C virus subtype 4a
[22] = Inhibition of HCV genotype 3a C-terminal polyhistidine-tagged NS5B Cdelta21 RdRp expressed in Escherichia coli using DCoH75 as template assessed as incorporation of [33P]-CTP in polynucleotide sequence after 2 hrs by scintillation counting analysis; parameters: species or system Hepatitis C virus subtype 3a
[23] = Clearance in iv dosed monkey; format: ADME, organism-based, Macaca mulatta; settings: rhesus monkey, in vivo
[24] = AUC (0 to 24 hrs) in monkey at 3 mg/kg, po; format: ADME, organism-based, Macaca mulatta; parameters: time < 24 hr, dose 3 mg/kg, route oral; settings: rhesus monkey, plasma
[25] = Half life in dog at 1 mg/kg, iv; format: ADME, organism-based, Canis lupus familiaris; parameters: dose 1 mg/kg, route intravenous; settings: in vivo
[26] = tested on: RNA-directed RNA polymerase (Hepacivirus hominis), O39930 [M414T]; experiment: Inhibition of HCV NS5B RdRp M414T mutant palm allosteric site
[27] = AUC (0 to 24 hrs) in rat at 10 mg/kg, po; format: ADME, organism-based; parameters: time < 24 hr, dose 10 mg/kg, route oral; settings: plasma
[28] = Clearance in iv dosed rat; format: ADME, organism-based; settings: in vivo
Rattus norvegicus [29] = experiment: AUC (0 to 6 hrs) in rat assessed as 4-Fluoro-6-((7-fluoro-4-oxo-3,4-dihydroquinazolin-6-yl)methyl)-8-(2-oxo-1,2-dihydropyridin-3-yl)-6H-furo[2,3-e]indole-7-carboxylic acid at 10 mg/kg, po; format: ADME, organism-based, Plasma; parameters: time < 6 hr, dose 10 mg/kg, route oral; settings: in vivo
Rattus norvegicus [30] = organism: Rattus norvegicus; experiment: Ratio of drug level from liver to plasma in rat assessed as 4-Fluoro-6-((7-fluoro-4-oxo-3,4-dihydroquinazolin-6-yl)methyl)-8-(2-oxo-1,2-dihydropyridin-3-yl)-6H-furo[2,3-e]indole-7-carboxylic acid after 6 hrs; settings: other tissue

IC50 [1]: 3 nM
EC50 (Hepatitis C virus): 40 nM
SMILES: CCc1ccc2c(c1)c(-c1ccc[nH]c1=O)c(C(=O)NS(=O)(=O)C1CC1)n2Cc1cc(F)ccc1F

AUC(0-t) at 6 h [2]: 0.21 µM·h
IC50 [1]: 5 nM
EC50 (Hepatitis C virus): 10 nM
SMILES: NC(=O)c1ccc(F)c(Cn2c(C(=O)NS(=O)(=O)C3CC3)c(-c3ccc[nH]c3=O)c3c4occc4c(F)cc32)c1

IC50 [1]: 51 nM
EC50 (Hepatitis C virus): 67 nM
SMILES: CC(C)(C)C(=O)OCn1cccc(-c2c(C(=O)O)n(Cc3cc4c(=O)[nH]cnc4cc3F)c3cc(F)c4ccoc4c23)c1=O

IC50 [1]: 2000 nM
EC50 (Hepatitis C virus): 2000 nM
SMILES: O=C(O)c1c(-c2ccc[nH]c2=O)c2c3occc3c(F)cc2n1Cc1cc2[nH]c(=O)oc2cc1F

IC50 [1]: 8 nM
EC50 (Hepatitis C virus): 150 nM
SMILES: NC(=O)c1ccc(F)c(Cn2c(C(=O)NS(=O)(=O)C3CC3)c(-c3ccc[nH]c3=O)c3cc(C(F)(F)F)c(F)cc32)c1

SMILES: O=C(O)c1c(-c2ccc[nH]c2=O)c2c3occc3c(F)cc2n1Cc1cc2c(=O)[nH]cnc2cc1F
Cmax [3]: 1400 nM
Activity [4]: Non-toxic
inhibition [5]: inactive
inhibition [6]: inactive
clearance [7]: 11 mL/min/kg
AUC(0-t) at 24 h [8]: 0.4 µM·h
IC50 [9]: > 5000 nM
Cmax [10]: 800 nM
inhibition [11]: Active
IC50 [12]: 7 nM
half-life [13]: 9.4 h
AUC(0-t) at 6 h [2]: 4.3 µM·h
bioavailability [14]: 0.7%
bioavailability [15]: 5%
inhibition [16]: Active
IC50 [1]: 5 nM
half-life [17]: 8.9 h
inhibition [18]: Active
bioavailability [19]: 4%
Activity (Salmonella typhimurium): Non-toxic
Cmax [20]: 100 nM
IC50 [21]: > 5000 nM
EC50 (Hepatitis C virus): 6 nM
IC50 [22]: > 5000 nM
clearance [23]: 0.6 mL/min/kg
AUC(0-t) at 24 h [24]: 8 µM·h
half-life [25]: 3.2 h
inhibition [26]: inactive
AUC(0-t) at 24 h [27]: 10 µM·h
clearance [28]: 0.2 mL/min/kg

IC50 [1]: 13 nM
EC50 (Hepatitis C virus): 10 nM
SMILES: CC(C)(C)C(=O)OCn1cnc2cc(F)c(Cn3c(C(=O)O)c(-c4ccc[nH]c4=O)c4c5occc5c(F)cc43)cc2c1=O

IC50 [1]: 4 nM
SMILES: Cc1ccc2c(c1)c(-c1ccc[nH]c1=O)c(C(=O)NS(=O)(=O)C1CC1)n2Cc1cc(C(N)=O)ccc1F

IC50 [1]: 6 nM
EC50 (Hepatitis C virus): 300 nM
SMILES: Cn1c(=O)[nH]c(=O)c2cc(Cn3c(C(=O)O)c(-c4ccc[nH]c4=O)c4c5occc5c(F)cc43)c(F)cc21

AUC (Rattus norvegicus [29]): 0.22 µM·h
IC50 [1]: 9 nM
EC50 (Hepatitis C virus): 22 nM
SMILES: CCOC(=O)c1c(-c2ccc[nH]c2=O)c2c3occc3c(F)cc2n1Cc1cc2c(=O)[nH]cnc2cc1F

IC50 [1]: 5 nM
EC50 (Hepatitis C virus): 100 nM
SMILES: CCc1ccc2c(c1)c(-c1ccc[nH]c1=O)c(C(=O)NS(=O)(=O)C1CC1)n2Cc1cc(O)ccc1F

AUC(0-t) at 6 h [2]: 0.02 µM·h
IC50 [1]: 7 nM
EC50 (Hepatitis C virus): 7 nM
SMILES: Nc1nc2cc(F)c(Cn3c(C(=O)O)c(-c4ccc[nH]c4=O)c4c5occc5c(F)cc43)cc2c(=O)[nH]1

AUC(0-t) at 6 h [2]: 8.3 µM·h
IC50 [1]: 4 nM
EC50 (Hepatitis C virus): 6 nM
SMILES: O=C(O)c1c(-c2ccc[nH]c2=O)c2c3occc3c(F)cc2n1Cc1cc2c(=O)[nH]c(=O)[nH]c2cc1F

AUC(0-t) at 6 h [2]: 0.85 µM·h
IC50 [1]: 4 nM
EC50 (Hepatitis C virus): 20 nM
SMILES: Cc1nc2cc(F)c(Cn3c(C(=O)O)c(-c4ccc[nH]c4=O)c4c5occc5c(F)cc43)cc2c(=O)[nH]1

AUC(0-t) at 6 h [2]: 4 µM·h
IC50 [1]: 7 nM
EC50 (Hepatitis C virus): 10 nM
SMILES: O=C(O)c1c(-c2ccc[nH]c2=O)c2c3occc3c(F)cc2n1Cc1cc2[nH]c(=O)[nH]c2cc1F

IC50 [1]: 5 nM
EC50 (Hepatitis C virus): 700 nM
SMILES: O=C(O)c1ccc(F)c(Cn2c(C(=O)O)c(-c3ccc[nH]c3=O)c3c4occc4c(F)cc32)c1

IC50 [1]: 7 nM
EC50 (Hepatitis C virus): 80 nM
SMILES: CCc1ccc2c(c1)c(-c1ccc[nH]c1=O)c(C(=O)NS(=O)(=O)C1CC1)n2Cc1cc(C#N)ccc1F

AUC(0-t) at 6 h [2]: 0.17 µM·h
IC50 [1]: 3 nM
EC50 (Hepatitis C virus): 250 nM
SMILES: Cn1cnc2cc(F)c(Cn3c(C(=O)O)c(-c4ccc[nH]c4=O)c4c5occc5c(F)cc43)cc2c1=O

IC50 [1]: 8 nM
EC50 (Hepatitis C virus): 80 nM
SMILES: CCc1ccc2c(c1)c(-c1ccc[nH]c1=O)c(C(=O)NS(=O)(=O)C1CC1)n2Cc1cc(S(C)(=O)=O)ccc1F

IC50 [1]: 400 nM
EC50 (Hepatitis C virus): 69 nM
SMILES: CCOC(=O)c1c(-c2ccc[nH]c2=O)c2c3occc3c(F)cc2n1Cc1cc2c(=O)n(COC(=O)C(C)(C)C)cnc2cc1F

IC50 [1]: 12 nM
EC50 (Hepatitis C virus): 30 nM
SMILES: CCc1ccc2c(c1)c(-c1ccc[nH]c1=O)c(C(=O)NS(=O)(=O)C1CC1)n2Cc1cc(C(N)=O)ccc1F

IC50 [1]: 4 nM
SMILES: NC(=O)c1ccc(F)c(Cn2c(C(=O)O)c(-c3ccc[nH]c3=O)c3c4occc4c(F)cc32)c1

IC50 [1]: 4 nM
EC50 (Hepatitis C virus): 50 nM
SMILES: Cc1cc2c(-c3ccc[nH]c3=O)c(C(=O)NS(=O)(=O)C3CC3)n(Cc3cc(C(N)=O)ccc3F)c2cc1F

AUC(0-t) at 6 h [2]: 8.8 µM·h
IC50 [1]: 20 nM
EC50 (Hepatitis C virus): 70 nM
SMILES: CC(=O)c1ccc(F)c(Cn2c(C(=O)O)c(-c3ccc[nH]c3=O)c3c4occc4c(F)cc32)c1

IC50 [1]: 6 nM
EC50 (Hepatitis C virus): 170 nM
SMILES: NC(=O)c1ccc(F)c(Cn2c(C(=O)NS(=O)(=O)C3CC3)c(-c3ccc[nH]c3=O)c3cc(C(F)(F)F)ccc32)c1

AUC (Rattus norvegicus [29]): 0.79 µM·h
IC50 [1]: 75 nM
EC50 (Hepatitis C virus): 14 nM
SMILES: CN(C)CCCCOC(=O)c1c(-c2ccc[nH]c2=O)c2c3occc3c(F)cc2n1Cc1cc2c(=O)[nH]cnc2cc1F

IC50 [1]: 5 nM
EC50 (Hepatitis C virus): 80 nM
SMILES: CCc1ccc2c(c1)c(-c1ccc[nH]c1=O)c(C(=O)NS(=O)(=O)C1CC1)n2Cc1cc(S(N)(=O)=O)ccc1F

AUC (Rattus norvegicus [29]): 2.3 µM·h
IC50 [1]: 110 nM
EC50 (Hepatitis C virus): 11 nM
Ratio (Rattus norvegicus [30]): 0.4
SMILES: CN(C)CCCOC(=O)c1c(-c2ccc[nH]c2=O)c2c3occc3c(F)cc2n1Cc1cc2c(=O)[nH]cnc2cc1F

IC50 [1]: 5 nM
EC50 (Hepatitis C virus): 60 nM
SMILES: CCc1cc2c(-c3ccc[nH]c3=O)c(C(=O)NS(=O)(=O)C3CC3)n(Cc3cc(C(N)=O)ccc3F)c2cc1F

From ChEMBL document CHEMBL3124829, “Discovery of SCH 900188: A Potent Hepatitis C Virus NS5B Polymerase Inhibitor Prodrug As a Development Candidate” (ACS Med Chem Lett, 2014)
